Source: patent US20220152188A1, “TLR4-TLR7 LIGAND FORMULATIONS AS VACCINE ADJUVANTS” (The Regents of the University of California, priority 2019, published 2022)
Entries after “also recorded” stand apart in the source; their conditions may differ.

Columns and labels:
[1] = tested on: inactivated Influenza A virus [A/California/04/2009 (H1N1) pdm09]; test: Antigen-specific antibody production in mice immunized with IIAV plus adjuvant (ELISA); assay type: in vivo, BALB/c mice; conditions: for total IgG levels: liposomal formulation
murine primary cells = test: In vitro immunoactivity / agonistic potency in murine cells; assay type: cell-based, mouse
[2] = tested on: THP-1 cells and human primary cells; test: In vitro immunoactivity / agonistic potency in human cells; assay type: cell-based; conditions: THP-1 and human primary cells
mouse TLR4 = mouse TLR4 (Mus musculus, UniProt Q9JHF9+Q9QUK6); assay type: cell-based
IGH genes, TCRα and TCRβ = test: NGS assay for BCR and TCR repertoire of inguinal lymph nodes; assay type: in vivo, BALB/c mice; conditions: day 28
TLR4 = TLR4 (Homo sapiens, UniProt O00206+Q9Y6Y9); assay type: cell-based
ovalbumin = test: In vivo vaccination study with model antigen ovalbumin; conditions: ovalbumin as antigen
influenza virus = test: Immunization with low dose recombinant hemagglutinin (rHA) and lethal virus challenge; assay type: in vivo, mice; conditions: rHA 0.2 μg/injection
Protocol: To assess profile of protective immune responses against influenza virus infection induced by TLR4/TLR7 agonist-combined adjuvant, mice were immunized with low dose (0.2 μg/injection) recombinant hemagglutinin (rHA) and humoral responses and protection against lethal virus challenge (FIGS. 34A-2D).

[3] = TLR4 agonist combined with 1V270, DMSO-water formulation, sera day 28
[4] = single adjuvant, DMSO formulation, i.m. days 0 and 21, sera day 28
[5] = single adjuvant, DMSO formulation, sera day 28

Chain of mouse TLR4 (Q9QUK6 26-835): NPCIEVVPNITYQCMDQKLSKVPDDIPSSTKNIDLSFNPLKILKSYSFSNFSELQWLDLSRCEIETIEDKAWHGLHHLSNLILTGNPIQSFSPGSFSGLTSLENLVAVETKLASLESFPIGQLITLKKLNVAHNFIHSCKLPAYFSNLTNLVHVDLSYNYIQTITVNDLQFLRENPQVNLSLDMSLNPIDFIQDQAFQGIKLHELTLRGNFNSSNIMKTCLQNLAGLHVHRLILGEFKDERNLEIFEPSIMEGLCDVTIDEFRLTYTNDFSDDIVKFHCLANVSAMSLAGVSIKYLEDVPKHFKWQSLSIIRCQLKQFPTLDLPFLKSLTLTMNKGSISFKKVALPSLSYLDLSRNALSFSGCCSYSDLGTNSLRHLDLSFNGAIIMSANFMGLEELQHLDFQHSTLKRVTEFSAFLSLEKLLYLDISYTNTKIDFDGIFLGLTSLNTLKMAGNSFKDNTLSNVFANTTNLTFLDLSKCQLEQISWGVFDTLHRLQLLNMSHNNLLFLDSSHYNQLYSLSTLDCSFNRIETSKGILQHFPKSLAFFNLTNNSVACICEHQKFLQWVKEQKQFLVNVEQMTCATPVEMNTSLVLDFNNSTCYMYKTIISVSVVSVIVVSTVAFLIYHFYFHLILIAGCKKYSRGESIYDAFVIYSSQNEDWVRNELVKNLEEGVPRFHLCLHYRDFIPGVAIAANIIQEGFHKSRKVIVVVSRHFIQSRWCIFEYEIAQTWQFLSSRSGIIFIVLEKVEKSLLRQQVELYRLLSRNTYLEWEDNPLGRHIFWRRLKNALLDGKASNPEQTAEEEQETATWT
Chain of mouse TLR4 (Q9JHF9 19-160): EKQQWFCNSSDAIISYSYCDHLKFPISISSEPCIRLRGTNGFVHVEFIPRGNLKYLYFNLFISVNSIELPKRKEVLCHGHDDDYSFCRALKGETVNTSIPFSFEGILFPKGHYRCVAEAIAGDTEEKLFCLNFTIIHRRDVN
Chain of TLR4 (O00206 24-839): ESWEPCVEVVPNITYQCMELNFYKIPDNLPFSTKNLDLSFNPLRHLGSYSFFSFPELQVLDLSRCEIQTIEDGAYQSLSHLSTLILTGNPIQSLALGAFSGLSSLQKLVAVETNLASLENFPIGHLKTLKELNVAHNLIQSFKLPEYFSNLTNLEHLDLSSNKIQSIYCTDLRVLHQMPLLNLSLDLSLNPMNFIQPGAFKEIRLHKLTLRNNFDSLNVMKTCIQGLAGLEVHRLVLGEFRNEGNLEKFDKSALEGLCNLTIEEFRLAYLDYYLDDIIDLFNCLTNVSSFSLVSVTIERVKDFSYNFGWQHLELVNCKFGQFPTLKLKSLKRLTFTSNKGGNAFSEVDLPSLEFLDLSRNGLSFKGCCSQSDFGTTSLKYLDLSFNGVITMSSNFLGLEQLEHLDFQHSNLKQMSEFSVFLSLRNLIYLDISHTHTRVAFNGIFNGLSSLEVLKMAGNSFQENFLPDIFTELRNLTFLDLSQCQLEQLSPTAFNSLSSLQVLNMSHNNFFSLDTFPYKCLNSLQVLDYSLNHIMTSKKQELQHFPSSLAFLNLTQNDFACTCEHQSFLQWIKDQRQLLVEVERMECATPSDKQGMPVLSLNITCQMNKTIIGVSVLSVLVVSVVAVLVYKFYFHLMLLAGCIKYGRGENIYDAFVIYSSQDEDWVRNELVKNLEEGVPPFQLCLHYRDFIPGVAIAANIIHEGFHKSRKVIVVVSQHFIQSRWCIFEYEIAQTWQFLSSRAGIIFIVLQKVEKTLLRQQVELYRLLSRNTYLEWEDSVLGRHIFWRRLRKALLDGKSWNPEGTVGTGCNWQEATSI
Chain of TLR4 (Q9Y6Y9 17-160): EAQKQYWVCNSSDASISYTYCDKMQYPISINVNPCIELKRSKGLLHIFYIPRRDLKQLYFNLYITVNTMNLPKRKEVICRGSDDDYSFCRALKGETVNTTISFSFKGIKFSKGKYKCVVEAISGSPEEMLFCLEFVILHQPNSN

In the case of Cn1c2ccc(-c3ccco3)cc2c2nc(SCC(=O)NC3CCCCC3)n(-c3ccccc3)c(=O)c21 [Compound 2B182C], the “anti-HA and anti-NA IgG1” value [1, 3] is reported as “significantly higher IgG1 compared to 1Z105”, the “anti-HA and anti-NA IgG2a” value [1, 3] is reported as “increased the levels of anti HA- and anti NA-Abs” and the “total IgG levels” value ([1]; sera day 28) is reported as “comparable”. The “anti-HA and anti-NA IgG1” value [1, 4] was “significantly higher levels of IgG1 against HA and NA; also recorded: significantly increased IgG1 antibody against both HA and NA”, the “anti-HA and anti-NA IgG1” value ([1]; single adjuvant, DMSO formulation, i.m. days 0 and 21, sera day 28, listed as 2B182c) was “higher level of antigen specific IgG1” and the “anti-NA IgG2a” value [1, 5] was “enhanced anti-NA Abs; also recorded: enhanced anti-NA specific IgG2a”. For the same compound, the “antigen specific IgM” value [1, 5] was “only slightly increased”, the “anti-NA IgG2a” value ([1]; single adjuvant, DMSO formulation, sera day 28, listed as 2B182c) was “higher level of antigen specific IgG1 and anti-NA IgG2a” and the “immunoactivity / agonistic potency in murine cells” value (murine primary cells) was “higher agonistic potency than 1Z105”. For the same compound, the “immunoactivity / agonistic potency in human cells” value [2] was “higher agonistic potency than 1Z105”, the “EC50 in murine TLR4 reporter cells in comparison with EC50 of 1Z105” value (mouse TLR4) was 5.8 fold and the “TCR clonality (TCRα and TCRβ)” value (IGH genes, TCRα and TCRβ) was “increased”. The “EC50 in human TLR4 reporter cells in comparison with EC50 of 1Z105” value (TLR4) was 870 fold, the “serum IgG1 levels” value (ovalbumin) was “induced higher serum IgG1 levels” and the “antigen-specific IgG2a” value (ovalbumin; with 1V270) was “additively enhance the release of antigen-specific IgG2a induced by 1V270”.

CCCCCCCCC=CCCCCCCCC(=O)OCC(COP(=O)(O)OCCNC(=O)c1ccc(Cn2c(=O)[nH]c3c(N)nc(OCCOC)nc32)cc1)OC(=O)CCCCCCCC=CCCCCCCCC (centres unmarked) [Compound 1V270] was tested, and the “Th1/Th2 bias of immune response” value (influenza virus) was “induced Th1 biased immune responses”, the “IgG2a:IgG1 ratio (Th1/Th2 immune balance)” value ([1]; DMSO-water formulation, individual animals) was “significantly shifted the Th2-biased immune responses by 1Z105 or 2B182C” and the “total IgG levels” value ([1]; sera day 28) was “comparable”. The “anti-HA IgG2a” value [1, 5] was “significantly increased anti-HA; also recorded: induced only anti-HA IgG2a production”.

Cn1c2ccccc2c2nc(SCC(=O)NC3CCCCC3)n(-c3ccccc3)c(=O)c21 [Compound 1Z105] was tested, and the “anti-HA and anti-NA IgG2a” value [1, 3] was “failed in most cases; also recorded: failed to enhance IgG2a production induced by 1V270”, the “anti-HA and anti-NA IgG1” value [1, 4] was “significantly higher levels of IgG1 against HA and NA” and the “immunoactivity / agonistic potency in murine cells” value (murine primary cells) was “good immunoactivity in murine cells”. For the same compound, the “immunoactivity / agonistic potency in human cells” value [2] was “devoid of significant activity in human cells”.
